The text below walks through data of article PMC9822133, “Design, Synthesis and Antiproliferative Evaluation of Bis-Indole Derivatives with a Phenyl Linker: Focus on Autophagy” (Molecules, 2022).

In one assay the test system is A549. The assay can be described thus: MTT screening assay, A549. The class given is cell-based. To be noted: Homo sapiens, 72 h incubation. From the text: (§1) The ability of newly synthesized indole phytoalexins to suppress cell proliferation was screened in vitro on eight cancer cell lines including human colorectal carcinoma (Caco-2 and HCT116), human cervical cancer (HeLa), human breast adenocarcinoma (MCF-7, MDA-MB-231), human alveolar adenocarcinoma (A549) and human leukemic T cell lymphoma (Jurkat), and two non-cancer cell lines (MCF-10A, Cos-7).
(§2) The cell lines used for this study were Caco-2 (human colorectal adenocarcinoma cell line, American Type Culture Collection, Manassas, VA, USA (ATCC)), HCT116 (human colorectal carcinoma cells European Collection of Authenticated Cell Cultures, Salisbury, UK (ECACC)), HeLa (human cervical tumor cells, ECACC), MCF-7 (human breast tumor cells, ECACC), MDA-MB-231 (human breast tumor cells, ATCC), A549 (human lung carcinoma cells, ATCC), BLM (human melanoma lung metastases, a gift from prof. K. Smetana, Institute of Anatomy, Charles University in Prague), Jurkat (human leukemia cell line, ECACC), Cos-7 (immortalized monkey kidney fibroblasts, ATCC) and MCF-10A (human mammary epithelial cells, ATCC). Caco-2, MCF-7, BLM, Cos-7 and A549 cells were cultured in Dulbecco’s Modified Eagle’s Medium (DMEM) with high glucose and sodium pyruvate (GE Healthcare, Piscataway, NJ, USA); HCT116 lines, HeLa, MDA-MB-231 and Jurkat were cultured in RPMI-1640 medium; and MCF10A cells were cultured in high glucose DMEM/F12 (Dulbecco’s Modified Eagle’s Medium F12). The media were enriched with 10% fetal bovine serum (FBS) and a 1% solution of a mixture of antibiotics and antimycotics 1× HyClone™ (GE Healthcare, Chicago, IL, USA). DMEM/F12 medium was supplemented with epidermal growth factor (EGF) (20 ng/mL final), hydrocortisone (0.5 μg/mL final) and insulin (10 μg/mL final) (Sigma-Aldrich Chemie, Steinheim, Germany). The cells were placed in an incubator at 37 °C with humidified air containing 5% CO2.
(§3) The MTT assay is a colorimetric method used to quantify the metabolic activity of cells. MTT (3-(4,5-di-methylthiazol-2-yl)2,5-diphenyltetrazolium bromide) (Sigma-Aldrich Chemie, Steinheim, Germany) is reduced by oxidoreductases in the cytosol of cells to light-absorbing formazan, the presence of which can be measured spectrophotometrically and determines the half-maximal inhibitory concentration (IC50). A549 cells were seeded in […] culture plates at a density of 5 × 10^3 per well. […]
(§4) We also incubated the cells with chloroquine at concentrations of 5–20 µM, which was added 1 h before the addition of the test substance, and cisplatin at concentrations of 3–10 µM. […] After 24 h, the absorbance was measured at a wavelength of 540 nm using an automated Cytation™ 3 Cell Imaging Multi-Mode Reader (Biotek, Winooski, VT, USA). […]
In general terms: Tetrazolium assays rely on reduction of a dye to a coloured formazan, in cell work by metabolically active cells.

In another assay the test system is A549 cells. Nature of the assay: Annexin V/PI staining. The class given is cell-based, human. On the procedure: Phosphatidylserine (PS), normally localized in the inner leaflet of the cell membrane, is translocated on the outer surface during induction of apoptosis. Annexin V/PI double staining was performed to analyze the externalization of PS on the outer plasmatic membrane surface together with cell population diversification (An^−/PI^−—living cells; An^+/PI^- early apoptotic cells; An^+/PI^+—late apoptotic/necrotic cells, and An^−/PI^+—dead cells). […] The A549 lung human alveolar adenocarcinoma cells were seeded at a density of 2 × 10^5/dish. After 24 h incubation, the cells were treated with indole phytoalexin 49 at 20 µM concentration alone or after 1 h pre-treatment with chloroquine (20 µM), and the control group with DMSO (v/v 0.02%). The whole population of treated cells (adherent and floating) was harvested at three different times (24, 48 and 72 h), washed with PBS and stained with Annexin V-Alexa Fluor® 647 antibody (Thermo Scientific, Rockford, IL, USA) in binding buffer for 20 min in the dark at RT. After the wash step, samples were stained with 1 μL of propidium iodide (final concentration 25 μg/mL) for 5 min and analyzed using a BD FACSCalibur^TM Flow Cytometer (Becton Dickinson, San Jose, CA, USA). Three independent analyses were performed.

In a further assay the test system is BLM. Nature of the assay: MTT screening assay, BLM. To be noted: Homo sapiens, 72 h incubation. The class given is cell-based.
Assay [1] concerns A549 human lung cancer cells. The assay can be described thus: MTT assay with cis-platin alone or combined with compound 49. The class given is cell-based. To be noted: A549, CisPt 10 μM + compound 49 20 μM.
Excerpt: Furthermore, the depletion of GSH has been documented to potentiate the effect of anticancer drugs. Glutathione plays an important role in cisPt detoxification, so depletion of GSH is believed to potentiate the cisPt-induced DNA damage and increase the chemosensitivity of cancer cells to this anticancer drug. Due to the GSH-depleting effect of compound 49, we performed a set of experiments with cis-platin (CisPt) alone or in combination with compound 49 (Figure 9). […] Simultaneous treatments with CisPt (10 μM) and 20 μM of compound 49 caused a 59% reduction in cell growth.
The MTT assay is a colorimetric method used to quantify the metabolic activity of cells. MTT (3-(4,5-di-methylthiazol-2-yl)2,5-diphenyltetrazolium bromide) (Sigma-Aldrich Chemie, Steinheim, Germany) is reduced by oxidoreductases in the cytosol of cells to light-absorbing formazan, the presence of which can be measured spectrophotometrically and determines the half-maximal inhibitory concentration (IC50). […]
as §4

In assay [2] the test system is glutathione-S-transferase (GST). The assay can be described thus: GST activity in treated A549 cells. The class given is cell-based, human. To be noted: A549, 20 µM. From the text: Glutathione is an important intracellular molecule involved in carcinogen detoxification. On the other hand, its elevated state in cancer cells is often associated with resistance to chemotherapy. […] Because high levels of GSH are associated with cancer cell resistance, the GHS-depleting effect of compound 49 could be interesting due to new cancer chemosensitizer development. In the case of GST and GR, we hypothesize that an increase in the activity of both enzymes may be a compensatory mechanism induced by GSH depletion.
Both floating and adherent A549 cells were harvested at 24, 48, and 72 h after treatment with compound 49 (20 µM). SOD determination kit, Glutathione Peroxidase Cellular Activity Assay kit, Glutathione Reductase Assay Kit and Glutathione-S-transferase (GST) Assay Kit (all Sigma Aldrich, Germany) were used for the detection of relevant enzyme activity. Reduced glutathione (GSH) content was measured by the method originally described by Floreani et al.. Assays were performed on an M 501 single beam UV/VIS spectrophotometer (Spectronic Camspec Ltd., Leeds, United Kingdom). All measured parameters were calculated per milligram or gram of protein determined using the bicinchoninic acid assay.

For a further assay, the system named is MCF-7. The assay can be described thus: MTT screening assay, MCF-7. The class given is cell-based. To be noted: Homo sapiens, MCF7, 72 h incubation.
Excerpt: as §1, §2, §3, §4

A value given as a limit tells only on which side of the number the result lay.

For orientation: IC50 means the concentration that inhibits the measured activity by half. The low end stands for greater potency in that assay, the high end for weaker potency in that assay. For the molecule `CC(C)(C)OC(=O)n1cc(CNC(=O)Nc2ccc(NC(=O)NCc3cn(C(=O)OC(C)(C)C)c4ccccc34)cc2)c2ccccc21` [Compound 49, N,N′-(1,4-phenylene)bis{N′-[1-(tert-butoxycarbonyl)indol-3-yl]methyl (urea)}], the IC50 was 8.7 ± 0.1 µM in the assay with A549, more than 100 µM with BLM and more than 100 µM with MCF-7. The “total PS externalization (Annexin V/PI)” value in the assay on A549 cells (A549, 20 µM, 24, 48 and 72 h, vs DMSO-treated control) is recorded as “did not induce”. For the same molecule, in the assay on A549 cells (A549, 49 20 µM + CQ 20 µM, all time points, vs DMSO, CQ or 49 alone), the “number of cells in late apoptosis, combination with CQ” value is recorded as “significantly increased”. Moreover, the “reduction in cell growth, combination” value in assay [1] is listed as 59%. Moreover, the GST in assay [2] (24 h) amounted to 3.540 ± 1.07 μkat/mg Prot; in assay [2] (48 h), 2.580 ± 0.44 μkat/mg Prot; in assay [2] (72 h) it was 5.060 ± 0.52 μkat/mg Prot.
